In patent US20190022198A1, “Individualized Immunomodulation Therapy for Neurodegenerative Disorders, CNS Injury and Age-Related Dementia” (Yeda Research and Development Co. Ltd., priority 2012, published 2019):

Legend:
CP epithelial cells = test: Primary culture of choroid plexus cells treated with cytokines, mRNA by real-time qPCR; format: cell-based, mouse; settings: TNF-α 100 ng/ml
Method: Mice were perfused from the left ventricle of the heart with PBS, and their CPs were removed under a dissecting microscope (Stemi DV4; Zeiss) in PBS into tubes containing 0.25% trypsin, and kept on ice. The tubes were shaken for 20 minutes at 37° C. and the tissue was dissociated by pipetting. The cell suspension was washed in culture medium for epithelial cells (DMEM/HAM's F12 (Invitrogen Corp)) supplemented with 10% FCS (Sigma-Aldrich), 1 mM 1-glutamine, 1 mM sodium pyruvate, 100 U/ml penicillin, […] streptomycin, 5 μg/ml Insulin, 20 μM Ara-C, 5 ng/ml sodium selenite, 10 ng/ml EGF, and cultured (˜250,000 cells/well) at 37° C., 5% CO2 in 24-well plates (Corning Incorporated) coated with poly-L-lysine (PLL; Sigma-Aldrich). After 24 hours, the medium was changed, and the cells were either left untreated, or treated with the indicated cytokines (all purchased from PeproTech): IFN-γ, IL-4, IL-10, IL-17A, GM-CSF, IL-6, IL-1β or TNF-α or their combinations for 24 h. Cell viability was quantified by Trypan blue staining after detachment of the cells with 0.25% trypsin for 10 minutes at 37° C. Neutralizing antibodies to TNF-R1 or TNF-R2 ([…], BioLegend) were added 1 h prior to the addition of TNF-α (100 ng/ml). RNA was isolated using the ZR RNA microprep kit (Zymo Research) according to the manufacturer's protocol.
Total RNA of the hippocampus was extracted with TRI reagent (MRC, Cincinnati, Ohio) and was purified from the lysates and spinal cord using the RNeasy kit (Qiagen, Hilden, Germany). Total RNA of the choroid plexus was extracted using the RNA MicroPrep kit (Zymo Research). mRNA (1 μg) was converted to cDNA using High Capacity cDNA Reverse Transcription Kit (Applied Biosystems). The expression of specific mRNAs was assayed using fluorescence based real-time quantitative PCR (qPCR). qPCR reactions were performed using Power SYBR Green PCR Master Mix (Applied Biosystems). Quantification reactions were performed in triplicates for each sample using the standard curve method. Glyceraldehyde 3-phosphate dehydrogenase (GAPDH), Peptidylprolyl isomerase A (PPIA), and hypoxanthine guanine phosphoribosyltransferase (HPRT) were chosen as reference genes according to their stability in the target tissue. The amplification cycles were 95° C. for 5 sec, 60° C. for 20 sec, and 72° C. for 15 sec. At the end of the assay, a melting curve was constructed to evaluate the specificity of the reaction. For some genes, the cDNA was pre-amplified in 14 PCR cycles with non-random PCR primers, thus increasing the sensitivity of the subsequent real-time PCR analysis (PreAmp Master Mix Kit, Applied Biosystems). For these genes, expression was determined using TaqMan Real-Time PCR, according to manufacturer's instructions (Applied Biosystems). All quantitative real-time PCR reactions were performed and analyzed using the 7500 Real-Time PCR System (Applied Biosystems). The following TaqMan probes were used: Mm02342430_g1 (ppia), Mm00446968_m1 (hprt), Mm00445260_m1 (il-4), Mm01168134_m1 (ifn-γ), Mm00441238_m1 (ccl11), Mm00475988_m1 (arg-1). In addition, the following primers were used: […]

cultured CP cells = test: Immunocytochemistry of cultured CP cells treated with cytokines; format: cell-based, mouse; settings: cultured cells following TNF-α treatment (data not shown)
Method: For whole mount staining of the choroid plexus, isolated tissues were fixed with 2.5% paraformaldehyde (PFA) for several hours, and subsequently transferred to PBS containing 0.05% sodium azide. Prior to staining, the dissected tissues were washed and blocked (20% horse serum, 0.3% Triton X-100, and PBS) for 1 h at room temperature with shaking. Whole mount staining with primary (in PBS containing 2% horse serum and 0.3% Triton X-100) and secondary antibodies (in PBS), was performed for 1h at room temperature, with shaking. Each step was followed by three washes in PBS. The tissues were mounted onto slides, using Immu-mount (9990402, from Thermo), and sealed with cover-slips. For staining of sectioned brains, two different tissue preparation protocols (paraffin embedded and microtomed frozen sections) were applied, as previously described (Ziv Y et al (2006b)). For immunocytochemistry, CP cells were isolated as described above and were grown on PLL coated cover slips for 7 days, replacing the medium every 3 days. Cytokines were added for the last 3 days of culture. Following 7 days of culture, the wells were washed with PBS and the cells were fixed either with 2.5% paraformaldehyde for 30 min or methanol-acetone (1:1) for 10 min at −20° C., following by 2 washing steps with PBS. For CCL11 staining, cells were treated with Brefeldin-A 2 hours prior to fixation in order to arrest protein secretion. The cover slips of the cultured CP cells were incubated with the indicated antibodies and mounted with Glycerol Vinyl Alcohol (GVA) mounting solution (Invitrogen). The following primary antibodies were used: rat anti-CD3 (Abcam); rat anti-ICAM-1 (1:100; Abcam), chicken anti-vimentin (1:500, Millipore), rabbit anti-Iba1 (1:300; Wako), goat anti-IL-10 (1:20; R&D), mouse anti-MHC-II (Abcam); mouse anti-Arginase-1 (BD Biosciences); mouse anti-Cytokeratin (Covance); rat anti-CCL11 (R&D Systems); rabbit anti-ZO-1 (Invitrogen); and rabbit anti-Claudin-1 (Invitrogen). Secondary antibodies included: Cy2/Cy3-conjugated donkey anti-rat, mouse or rabbit antibody and Cy3 conjugated donkey anti-mouse, goat, rat, chicken or rabbit (1:200; all from Jackson Immuno Research). The slides were exposed to Hoechst stain (1:2000; Invitrogen) for 1 min. Two negative controls were routinely used in immunostaining procedures, staining with isotype control antibody followed by secondary antibody, and staining with secondary antibody alone. For morphological quantification, average cross-sectional area of epithelial cells was measured following Nissl staining. Cell borders (20-25 cells per picture) were marked and the area was quantified using Image-Pro Plus software in a blinded fashion.

CP cells = test: Transepithelial migration assay of CD115+ monocytes across CP cells towards CCL2; format: cell-based, mouse; settings: TNF-α in combination with IFN-γ (data not shown)
Method: For transepithelial migration assay, CP cells were isolated as above and plated on 5-μm pore size, 6.5 mm diameter polycarbonate filters in 24-well Transwell chambers (Costar, Corning) and grown for 7 days. The medium of the upper chamber was then replaced with 100 μl of freshly isolated CD115^+ monocytes (1.5×10^6 cells/ml in RPMI 1640 supplemented with 0.5% BSA) and the inserts were transferred to new wells containing RPMI 1640 supplemented with 0.5% BSA and 100 ng/ml CCL2 (PeproTech). The Transwells were then incubated at 37° C., 5% CO2. After 24 h the migrating cells at the lower chamber were removed using cell scraper and CD11b^+ cells were quantified by flow cytometry.
CD115^+ monocytes were isolated as previously reported (Shechter et al., 2009). Briefly, BM cells were harvested from the femur and tibiae of naïve mice, and enriched for mononuclear cells on a Ficoll density gradient. The CD115^+ BM monocyte population was isolated by MACS enrichment using biotinylated anti-CD115 antibodies and streptavidin-coupled magnetic beads (Miltenyi Biotec) according to the manufacturer's protocols. Monocyte purity was checked by flow cytometry based on CD11b reactivity and was 90%.

[1] = daily administration, subjects receiving daily injections; cited from earlier work
5XFAD mice [2] = test: Cop 1 (GA) vaccination regimens in 5XFAD mice: FoxP3+ T cells in spleen (FACS) and CP (staining); format: in vivo, mouse
Method: For intracellular staining of IFN-γ or IL-17, the cells were incubated with PMA (10 ng/ml; Sigma-Aldrich) and ionomycin (250 ng/ml; Sigma-Aldrich) for 6 h, and Brefeldin-A ([…]; Sigma-Aldrich) was added for the last 4 h. Intracellular labeling of cytokines was done with BD Cytofix/Cytoperm Plus Fixation/Permeabilization kit (cat. no. 555028) according to the manufacturer's protocol. Intracellular staining of FoxP3 was performed using the FoxP3 staining kit (eBioscience) according to the manufacturer's protocol. The following fluorochrome-labeled mAbs were used according to the manufacturers' protocols: FITC-conjugated anti-TCRβ, FITC-conjugated anti-CD44, PE-conjugated anti-CD4, PE-conjugated anti-IL-17A, APC-conjugated anti-IFN-γ, FITC-conjugated anti-CD45.2, Alexa-700-conjugated anti-CD45.2, Percp-Cy5.5-conjugated anti-TCRβ (all from BioLegend), and APC-conjugated anti-FoxP3 (eBioscience). Flow cytometry analysis was performed on each sample using a BD Biosciences LSRII flow cytometer, and the acquired data were analyzed using FlowJo software (Tree star). In each experiment, relevant negative control groups and single stained samples for each tissue were used to determine the populations of interest and to exclude others.
For whole mount staining of the choroid plexus, isolated tissues were fixed with 2.5% paraformaldehyde (PFA) for several hours, and subsequently transferred to PBS containing 0.05% sodium azide. Prior to staining, the dissected tissues were washed and blocked (20% horse serum, 0.3% Triton X-100, and PBS) for 1 h at room temperature with shaking. Whole mount staining with primary (in PBS containing 2% horse serum and 0.3% Triton X-100) and secondary antibodies (in PBS), was performed for 1h at room temperature, with shaking. Each step was followed by three washes in PBS. […] For morphological quantification, average cross-sectional area of epithelial cells was measured following Nissl staining. Cell borders (20-25 cells per picture) were marked and the area was quantified using Image-Pro Plus software in a blinded fashion. […]

5XFAD mice [3] = test: Radial arm water maze (RAWM) in GA vaccinated 5XFAD mice; format: in vivo, mouse
Method: Mice were tested for two days on 6 radial arm water maze paradigm in a water pool, as described in Alamed et al., Nat Protoc. 2006, 1(4), 1671-1679. Briefly, mice received an injection of GA as indicated in the examples. On the first day, 15 trials were performed, in trials 1, 3, 5, 7, 9 and 11 the platform was visible, and in all other trials the platform was hidden. On the second day, 12 trials were performed, all of them with hidden platform. The time required to reach the platform and the number of errors (incorrect arm entries) in 1-min time period was recorded.
To test the effect of different regimens of administration of Cop 1, 5XFAD females were vaccinated subcutaneously (S.C.) with 100 μg Cop 1 dissolved in 200 μl PBS. Three different regimens were compared: 5XFAD+2GA were vaccinated twice, with the second injection given three days after the first; 5XFAD+5GA were vaccinated five times, twice in the first week and once a week for another three weeks, and 5XFAD+daily GA were vaccinated every day for 28 days (19B). One day after the last GA injection, mice were sacrificed and their spleens were analyzed by FACS and compared to WT and untreated 5XFAD littermates. […] Radial arm water maze (RAWM) was performed to 4 groups of 8 months old mice to test mental cognitive performance. […]

Substance	expression of IFN-γ-receptor (IFN-γR) mRNA (CP epithelial cells; CP epithelial cells, 24 h, IL-1β 100 ng/ml, IL-6 10 ng/ml)	MADCAM-1 expression (CP epithelial cells; cultured CP cells, 24 hours, IFN-γ independent)	IFN-γR immunostaining (cultured CP cells)	monocyte trafficking through the CP towards CCL2 (CP cells)	level of Treg cells in the blood [1]	fold change of FoxP3+ T cells in spleen (5XFAD mice [2]; 2GA: vaccinated twice, second injection three days after the first, 100 μg S.C., compared to untreated 5XFAD)	incidence of FoxP3+CD3+ T cells in the CP (5XFAD mice [2]; 5XFAD+5GA, compared to untreated 5XFAD littermates)	FoxP3+ T cells in the spleens (5XFAD mice [2]; daily GA: every day for 28 days, 100 μg S.C.)	RAWM performance (mental cognitive performance) (5XFAD mice [3]; daily administration of GA for 28 days)	RAWM performance (mental cognitive performance) (5XFAD mice [3]; weekly GA: twice in the first week and once a week for another 3 weeks, compared to unvaccinated 5XFAD)
TNF-α	elevated the expression of IFN-γ-receptor	upregulated	elevation of IFN-γR	stimulated the CP to mediate monocyte trafficking towards CCL2						
Glatiramer Acetate [GA]					raises the level of Treg cells in the blood	significant decrease in the fold change of FoxP3^+ T cells	decreased	promoted the enrichment of FoxP3^+ T cells	performed as badly as the unvaccinated 5XFAD mice	significantly improved
